Data reported in paper PMC9259545, “Impact of poly-arginine peptides R18D and R18 on alteplase and tenecteplase thrombolysis in vitro, and neuroprotective stability to proteolysis” (Journal of Thrombosis and Thrombolysis, 2022).
No end group written: not given here.

Key:
plasmin = settings: cited from earlier work
From the text: Given the potential future application of the R18D, R18 and NA-1 peptides as ischaemic stroke neurotherapeutics, it is important to establish if they interfere with current and future standard of care treatments, namely alteplase (tPA; recombinant tissue plasminogen activator) and tenecteplase (TNK; a modified version of tPA) thrombolysis, which are routinely administered prior to thrombectomy. […] NA-1 is also degraded by plasmin [8]. Together, these findings confirm that peptides synthesised with D-enantiomer amino acids such as R18D, unlike peptides synthesised with L-enantiomer amino acids are highly resistant to proteolytic degradation and are likely to retain their neuroprotective efficacy ...

tPA [1] = target: T1, tPA (Homo sapiens, UniProt P00750); settings: cited from earlier work
T1 construct: purchased Boehringer Ingelheim, Germany 10 mg vial
T1 sequence (P00750 36-562): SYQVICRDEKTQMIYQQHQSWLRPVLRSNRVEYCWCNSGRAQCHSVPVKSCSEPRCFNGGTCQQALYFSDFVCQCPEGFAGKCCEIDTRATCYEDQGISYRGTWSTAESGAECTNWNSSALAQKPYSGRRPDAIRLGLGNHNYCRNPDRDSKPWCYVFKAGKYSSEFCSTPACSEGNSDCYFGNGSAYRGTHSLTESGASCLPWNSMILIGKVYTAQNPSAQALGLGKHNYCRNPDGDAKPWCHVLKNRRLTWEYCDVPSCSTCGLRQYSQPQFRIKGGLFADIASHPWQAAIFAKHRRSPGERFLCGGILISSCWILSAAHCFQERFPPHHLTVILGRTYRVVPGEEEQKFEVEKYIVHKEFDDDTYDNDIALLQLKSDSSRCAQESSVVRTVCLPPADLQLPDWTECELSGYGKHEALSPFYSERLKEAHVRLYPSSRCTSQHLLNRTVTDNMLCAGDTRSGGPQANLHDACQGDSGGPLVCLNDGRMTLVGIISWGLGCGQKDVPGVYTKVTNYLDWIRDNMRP
From the text: (§1) A potential mechanism that could negatively influence the neuroprotective efficacy of a peptide (and protein) neurotherapeutic when co-administered with a thrombolytic agent in ischaemic stroke is its proteolytic stability. For example, a peptide could be degraded directly by the proteolytic action of tPA and TNK, or indirectly by plasmin following its activation by tPA/TNK.

[2] = in the order; 8 (NA-1), unpublished data (R18D); cited from earlier work
From the text: It is important to mention that the results obtained in this study are likely to overestimate any negative effects of R18D, R18 and NA-1 on tPA/TNK lag time and thrombolysis compared with what would occur clinically for several reasons. Firstly, positively charged peptides administered directly into the circulation would have a larger pool of negatively charged plasma proteins such as albumin to bind, and thus reduce any inhibitory electrostatic effects of the peptides on lag time and thrombolysis. In addition, the in vitro thrombolysis assay used in this study was performed in 27.5% plasma wh ...

whole blood halo clot = experiment: Halo assay dose response study of tPA and TNK; type: biochemical, human; settings: 5 nM tPA or TNK, halo assay dose response study (Supplementary Fig. 1; assay performed without added plasma), N = 4
Experimental: We utilised a high throughput 96-well plate thrombolysis assay (“halo clot assay”) based on the procedure developed by Bonnard et al.. To reduce assay components the halo thrombus formation procedure was modified by replacing the original thrombotic mixture consisting of recombinant tissue factor and synthetic phospholipids reconstituted in 30 mM calcium, with thrombin, and reducing the pro-thrombotic volume (i.e., thrombin) from 5 to 3 µL and blood volume from 25 to 12 µL. […]
The thrombolysis assay involved adding 30 µL of Tris buffer (50 mM Tris–HCl, 100 mM NaCl, […] during thrombolysis 27.5%). […] Following the addition of tPA or TNK into the wells, clot lysis was monitored over a 1-h period at 37 °C using a plate reader (Cytation5, BioTek, USA) by measuring absorbance at 510 nm every 1 min immediately after orbital shaking (205 rpm for 5 s). […] At the 1-h time point, the percentage of thrombolysis (%T) in tPA or TNK treated samples (LTX) was calculated by transforming absorbance values based on the formula: % T = (LTX) − (L0%)/(L100%) − (L0%) × 100. In addition, during the 1-h period of clot lysis lag time and maximal activity (also known as maximum velocity or Vmax) of the thrombolysis reaction were calculated. The lag time is defined as the time interval between the first absorbance reading (time = 0) and the line of maximum slope of the thrombolysis reaction. […]

[3] = human, in vivo, 0.5 mg/kg; cited from earlier work
From the text: as §1

tPA [4] = target: T1, tPA; experiment: Halo clot thrombolysis assay, tPA thrombolysis of whole blood clots; type: biochemical; settings: tPA 5 nM, 27.5% human plasma
Experimental: (§2) We utilised a high throughput 96-well plate thrombolysis assay (“halo clot assay”) based on the procedure developed by Bonnard et al.. To reduce assay components the halo thrombus formation procedure was modified by replacing the original thrombotic mixture consisting of recombinant tissue factor and synthetic phospholipids reconstituted in 30 mM calcium, with thrombin, and reducing the pro-thrombotic volume (i.e., thrombin) from 5 to 3 µL and blood volume from 25 to 12 µL. Another modification to simplify clot formation consisted of adding the thrombin (3 µL; 500 nM in saline) to one side of the well and 12 µL of blood to the opposite side of well, before using a heat stretched Pasteur pipette with sealed end to mix the two liquids together using 4 to 5 circular motions around the edge of the well (halo clot). The original methodology involved adding the 5 μL of the clotting mixture to the edge of the well, and then using a micropipette to slowly release the 25 μL of blood to the edge of the well while at the same time maintaining a circular motion. Plates were incubated in a humidified 37 °C incubator for 1 h before use in the thrombolysis assay.
(§3) The thrombolysis assay involved adding 30 µL of Tris buffer (50 mM Tris–HCl, 100 mM NaCl, pH 7.4) with or without peptide followed by 55 µL Tris buffer containing tPA or TNK (5 nM final concentration) and 50% human plasma (final plasma concentration during thrombolysis 27.5%). The final concentration of peptide during thrombolysis ranged from 0.25 to 16 µM (note: an intravenous dose of R18D at 350 nmol/kg, which is likely to be neuroprotective achieves a Cmax of 0.7–0.9 µM in healthy male and female rats; unpublished observation). […] Following the addition of tPA or TNK into the wells, clot lysis was monitored over a 1-h period at 37 °C using a plate reader (Cytation5, BioTek, USA) by measuring absorbance at 510 nm every 1 min immediately after orbital shaking (205 rpm for 5 s). Controls consisted of wells with no thrombin (100% clot lysis; L100%) and wells with no tPA or TNK (0% clot lysis; L0%). At the 1-h time point, the percentage of thrombolysis (%T) in tPA or TNK treated samples (LTX) was calculated by transforming absorbance values based on the formula: % T = (LTX) − (L0%)/(L100%) − (L0%) × 100. In addition, during the 1-h period of clot lysis lag time and maximal activity (also known as maximum velocity or Vmax) of the thrombolysis reaction were calculated. The lag time is defined as the time interval between the first absorbance reading (time = 0) and the line of maximum slope of the thrombolysis reaction. The maximal activity is calculated from the maximum slope over the time course of the assay and reflects the capacity of an enzyme to catalyse a reaction (i.e., thrombolysis), with higher values representing higher catalytic activity (i.e., tPA/TNK induced plasmin thrombolysis).
(§4) For each thrombolysis assay, replicates for control wells (L0% and L100%) and tPA or TNK only treated wells consisted of n = 4–8. Replicates for tPA or TNK and peptide treated wells consisted of n = 4. For data analysis and graphical representations of the results, data from three independent thrombolytic assays were pooled. Studies consisted of R18D, R18 and NA-1 examined at the 0.5, 1, 2, 4, 8 or 16 µM concentrations performed concurrently on the same 96-well plate, in respective order. In addition, since R18D is known to be resistant to plasmin degradation and appeared to have the most impact on tPA or TNK thrombolysis, a separate set of three independent assays were performed for this peptide alone at concentrations of 0.25, 0.5, 1, 2, 4, 8 or 16 µM. Furthermore, the second dose study with R18D provided the opportunity to include a lower concentration (0.25 µM) of the peptide and to provide comparative data when only one peptide was examined in the thrombolysis assay per 96-well plate as opposed to examining the three peptides concurrently on the same plate. […]

TNK [5] = target: T2, TNK (Homo sapiens, UniProt P00750, H332A/K331A/N152Q/R333A/R334A/T138N); experiment: Halo clot thrombolysis assay, TNK thrombolysis of whole blood clots; type: biochemical; settings: concurrent study, TNK 5 nM, 27.5% human plasma
T2 construct: purchased Boehringer Ingelheim 50 mg vial
T2 sequence (P00750 36-562 T138N/N152Q/K331A/H332A/R333A/R334A): as the sequence (P00750 36-562) above, with T103N, N117Q, K296A, H297A, R298A, R299A counted along it
Experimental: as §2, §3, §4

tPA or TNK = type: biochemical, human
Experimental: as §2, §3
For each thrombolysis assay, replicates for control wells (L0% and L100%) and tPA or TNK only treated wells consisted of n = 4–8. Replicates for tPA or TNK and peptide treated wells consisted of n = 4. For data analysis and graphical representations of the results, data from three independent thrombolytic assays were pooled. Studies consisted of R18D, R18 and NA-1 examined at the 0.5, 1, 2, 4, 8 or 16 µM concentrations performed concurrently on the same 96-well plate, in respective order. […]

tPA [6] = target: T1, tPA; experiment: Neuroprotective proteolytic stability after pre-incubation with tPA (glutamic acid excitotoxicity model, MTS); type: in vitro ADME; settings: 1 or 2 h or overnight (22-24 h)
Experimental: (§5) Neuronal cultures were maintained in CO2 incubator.
(§6) tPA (1000 µg/mL) or TNK (5000 µg/mL) resuspended in water (Baxter) were used to prepare 10 µg/mL (170 nM; note this is 34 times the concentration used in thrombolysis assay) stocks in MEM/2% B27 supplement (MEM/B27).
(§7) All data are presented as mean ± standard deviation (SD).

TNK [7] = target: T2, TNK; experiment: Neuroprotective proteolytic stability after pre-incubation with TNK (glutamic acid excitotoxicity model, MTS); type: in vitro ADME; settings: 1 or 2 h or overnight (22-24 h)
Experimental: as §5, §6, §7

trypsin (TrypLE Express) = trypsin (TrypLE Express) (Fusarium oxysporum, UniProt P35049); settings: inferred from neuroprotection; peptide 2 µM, 50% TrypLE Express, 1 or 2 h or overnight (22-24 h)
Chain of trypsin (TrypLE Express) (P35049 25-248): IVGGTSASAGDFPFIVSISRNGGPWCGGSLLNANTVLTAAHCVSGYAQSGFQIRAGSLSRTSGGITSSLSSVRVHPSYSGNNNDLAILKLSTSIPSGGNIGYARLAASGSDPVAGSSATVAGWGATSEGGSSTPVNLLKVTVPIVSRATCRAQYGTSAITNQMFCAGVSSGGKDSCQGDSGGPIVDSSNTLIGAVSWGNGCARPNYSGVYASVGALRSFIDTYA
Experimental: Rat primary cortical cultures were established from embryonic day 18–19 Sprague–Dawley rats (Animal Resources Centre, WA, Australia). Briefly, cortical tissue was dissociated in 2 mL Hanks balanced salt solution (HBBS; Life Technologies, Australia) supplemented with 1.3 mM L-cysteine, 10 U/mL papain (Sigma-Aldrich, Australia) and 50 U/mL DNase (Sigma-Aldrich) by trituration with a fire-polished pipette. Dissociated neurons were transferred to a 15-mL tube containing 13 mL of cold Dulbecco’s modified Eagle’s medium (DMEM; Life Technologies)/10% horse serum (Life Technologies) and centrifuged for 4 min at 300×g. Neurons were gently resuspended in 1.5 mL of cold Neurobasal (NB; Life Technologies)/2% B27 supplement (B27; Life Technologies) and the neuronal cell concentration adjusted to 50,000 neurons/70 μL and 70 μL inoculated into each well of a 96-well microtiter plate (Nunc, USA) pre-treated wells. Pre-treated wells were coated with 50 μL of poly-D-lysine (50 μg/mL; 70–150 K; Sigma-Aldrich) for 2–3 h at room temperature before being replaced with 50 μL of NB/B27, 4% fetal bovine serum (Life Technologies), 1% horse serum, 62.5 μM glutamic acid, 25 μM 2-mercaptoethanol, 30 μg/mL penicillin and 50 μg/mL streptomycin and placed in a CO2 incubator (5% CO2, 95% air balance, 98% humidity, 37 °C) prior to seeding with neurons. Neuronal cultures were maintained in CO2 incubator. On day in vitro four, 60 µL fresh NB/B27 containing the mitotic inhibitor cytosine arabinofuranoside (final concentration 0.15 μM; Sigma-Aldrich) was added and neuronal culture were used on day in vitro 11 to 13.
As an alternative to trypsin, TrypLE Express (Thermo Fischer Scientific, Australia) a synthetic serine protease with trypsin-like activity was used. […] Hereafter, TrypLE Express is referred to as trypsin.
Trypsin solution was added to an equal volume of MEM/2% B27 (T:MEM/B27). […] Following the incubation, 50 µL of the T:MEM/B27 or HBSS:MEM/B27 peptide solution was used to treat neuronal culture as described below for the glutamic acid excitotoxicity model. […]

Substance	Sensitivity to proteolytic degradation by plasmin (plasmin)	Degradation when incubated with tPA (tPA [1])	In vivo peak plasma concentration [2] [µM]	Plasma half-life [2] [min]	Clot lysis after 1-h (whole blood halo clot)	Serum concentration [3] [nM]	Effect on tPA lag time vs tPA control (tPA [4]; concurrent study, 0.5-16 µM peptide)	Increase in tPA thrombolysis maximal activity (tPA [4]; peptide 16 µM, concurrent study, 37 °C) [%]	Effect on percentage tPA thrombolysis at 1 h vs tPA control (tPA [4]; three peptides concurrently on the same plate, 0.5-16 µM peptide, Tris pH 7.4, 37 °C, 1 h, absorbance 510 nm, three independent assays pooled, n = 4, Dunnett's test)	Effect on TNK thrombolysis maximal activity vs TNK control (TNK [5]; 0.5-16 µM peptide)	Effect on percentage TNK thrombolysis at 1 h vs TNK control (TNK [5]; 0.5-16 µM peptide, 37 °C, 1 h)	Increase in TNK lag time (TNK [5]; peptide 8 µM, 37 °C) [min]	Increase in lag time (time to the commencement of thrombolysis) (tPA or TNK; range over peptide concentrations 0.25-16 µM and both thrombolytics, 1-h assay) [min]	Effect on maximal activity of the thrombolysis reaction (tPA or TNK; summary in abstract)	Resistance to degradation by tPA (tPA [6]; inferred from retained neuroprotection, peptide 2 µM, tPA 170 nM)	Neuroprotective efficacy after incubation with tPA (tPA [6]; peptide 2 µM in MEM/B27 with tPA 10 µg/mL (170 nM), 37 °C CO2 incubator, then rat cortical neurons, glutamic acid 100 µM 5 min, MTS viability at 20-24 h, N = 4-8)	Resistance to degradation by TNK (TNK [7]; inferred from retained neuroprotection, peptide 2 µM, TNK 170 nM)	Neuroprotective efficacy after incubation with TNK (TNK [7]; peptide 2 µM in MEM/B27 with TNK 10 µg/mL (170 nM), 37 °C CO2 incubator, then rat cortical neurons, glutamic acid 100 µM 5 min, MTS viability at 20-24 h, N = 4-8)	Resistance to degradation by trypsin (trypsin (TrypLE Express))	Neuroprotective properties in the glutamic acid excitotoxicity injury model when pre-incubated with plasmin (plasmin)
YGRKKRRQRRRKLSSIESDV [NA-1, reference compound]	sensitive	is not degraded	1 to 5	5 to 15	–	–	–	–	–	–	–	–	–	–	–	–	–	–	–	–
tPA: recombinant tissue plasminogen activator	–	–	–	–	approximately 90%	≤ 30	–	–	–	–	–	–	–	–	–	–	–	–	–	–
RRRRRRRRRRRRRRRRRR [R18]	sensitive	–	–	–	–	–	did not significantly increase tPA lag time	48.36	did not significantly inhibit thrombolysis	did not significantly impact TNK thrombolysis maximal activity	did not significantly inhibit TNK thrombolysis	5.53	0 to 5.53	appeared to increase the maximal activity	resistant to degradation	a similar and a high level of neuroprotective efficacy	resistant to degradation	a similar and a high level of neuroprotective efficacy	only R18D is resistant	not
